Test results published in ChEMBL document CHEMBL1153247, “Synthesis and biological evaluation of substituted 2-phenyl-2H-indazole-7-carboxamides as potent poly(ADP-ribose) polymerase (PARP) inhibitors” (Bioorg Med Chem Lett, 2010).
Where “and” joins values, the source holds several entries; their conditions need not be identical. Equal values may be shown once.

Key:
HeLa [1] = assay: Cytotoxicity against human BRCA1 deficient HeLa cells after 7 days by fluorimetric analysis; type: functional, cell-based; settings: 168 h
[2] = biological target: Poly [ADP-ribose] polymerase 1 (Homo sapiens, UniProt P09874); assay: Inhibition of human PARP1 after 3 hrs using [3H]NAD+ by scintillation proximity assay
Chain of Poly [ADP-ribose] polymerase 1 (P09874 whole entry): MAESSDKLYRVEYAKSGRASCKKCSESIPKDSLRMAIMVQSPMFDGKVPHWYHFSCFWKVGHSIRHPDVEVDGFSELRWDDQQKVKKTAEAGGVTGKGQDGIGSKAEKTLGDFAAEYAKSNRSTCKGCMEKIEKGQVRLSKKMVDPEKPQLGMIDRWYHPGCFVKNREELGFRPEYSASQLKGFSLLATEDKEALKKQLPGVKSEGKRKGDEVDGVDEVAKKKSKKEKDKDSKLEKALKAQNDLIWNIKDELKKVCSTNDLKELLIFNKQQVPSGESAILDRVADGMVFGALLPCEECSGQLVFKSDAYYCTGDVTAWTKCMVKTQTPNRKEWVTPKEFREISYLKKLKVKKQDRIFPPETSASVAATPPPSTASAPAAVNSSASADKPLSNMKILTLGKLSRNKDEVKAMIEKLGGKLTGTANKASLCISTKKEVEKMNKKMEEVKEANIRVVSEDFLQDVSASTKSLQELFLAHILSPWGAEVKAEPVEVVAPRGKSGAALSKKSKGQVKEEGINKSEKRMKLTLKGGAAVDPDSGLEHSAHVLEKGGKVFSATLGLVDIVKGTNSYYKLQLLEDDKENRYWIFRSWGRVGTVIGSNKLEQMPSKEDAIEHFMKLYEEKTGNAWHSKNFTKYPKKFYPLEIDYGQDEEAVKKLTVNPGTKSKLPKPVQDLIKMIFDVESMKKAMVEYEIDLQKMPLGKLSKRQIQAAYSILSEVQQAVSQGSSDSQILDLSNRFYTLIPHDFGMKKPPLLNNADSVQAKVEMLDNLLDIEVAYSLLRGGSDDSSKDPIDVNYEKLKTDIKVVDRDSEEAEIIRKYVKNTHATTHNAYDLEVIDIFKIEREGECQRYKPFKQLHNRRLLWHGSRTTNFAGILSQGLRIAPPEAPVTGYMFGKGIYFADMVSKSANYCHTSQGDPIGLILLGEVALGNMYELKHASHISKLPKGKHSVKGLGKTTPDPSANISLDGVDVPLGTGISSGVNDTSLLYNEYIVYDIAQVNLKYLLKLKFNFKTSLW

HeLa [3] = assay: Cytotoxicity against human HeLa cells expressing BRCA1 after 7 days by fluorimetric analysis; type: functional; settings: 168 h
[4] = (§1) Oral bioavailability in rat; type: ADME, organism-based; settings: in vivo
[5] = Clearance in rat; type: ADME, organism-based; settings: in vivo
Rattus norvegicus = assay: as §1; type: ADME, organism-based; settings: in vivo
[6] = Intrinsic clearance in rat microsomes; type: ADME, Microsome

IC50 [2] | bioavailability [4] | clearance [5] | F (Rattus norvegicus) | microsomal CLint [6] | SMILES | IC50 (HeLa [1]) | CC50 (HeLa [3])
16 nM | 66% | 26 mL/min/kg |  |  | CN1CCC(C(=O)Nc2ccc(-n3cc4cc(F)cc(C(N)=O)c4n3)cc2)CC1 | 520 nM | 2700 nM
10 nM |  |  |  |  | CN(C)CCNC(=O)c1ccc(-n2cc3cccc(C(N)=O)c3n2)cc1 | 5400 nM | 8900 nM
65 nM |  |  |  |  | NC(=O)c1cccc2cn(-c3ccc(CNC(=O)C4CNC4)cc3)nc12 | > 20000 nM | > 20000 nM
5 nM |  |  |  |  | CNCc1ccc(-n2cc3cccc(C(N)=O)c3n2)cc1C(F)(F)F | 6200 nM | > 20000 nM
4 nM |  |  |  |  | CNCc1ccc(-n2cc3cccc(C(N)=O)c3n2)cc1OC | 1900 nM | 11000 nM
8 nM |  |  |  |  | CNCc1ccc(-n2cc3c(F)ccc(C(N)=O)c3n2)cc1 | 2500 nM | 6300 nM
20 nM |  |  |  |  | CNCc1ccc(-n2cc3ccc(F)c(C(N)=O)c3n2)cc1 | 1600 nM | > 10000 nM
25 nM |  |  |  |  | CNCc1ccc(-n2cc3c(F)c(F)cc(C(N)=O)c3n2)cc1 | 2600 nM | > 5000 nM
54 nM |  |  |  |  | NC(=O)c1cccc2cn(-c3ccc(C(=O)NCCN4CCOCC4)cc3)nc12 | 7600 nM | > 20000 nM
25 nM |  |  |  |  | NC(=O)c1cccc2cn(-c3ccccc3)nc12 |  | 
6 nM |  |  |  |  | CNCc1ccc(-n2cc3cc(F)cc(C(N)=O)c3n2)c(F)c1 | 230 nM | 4200 nM
5 nM | 3% | 13 mL/min/kg |  |  | NC(=O)c1cc(F)cc2cn(-c3ccc(NC(=O)C4CNC4)cc3)nc12 | 310 nM | 5900 nM
6 nM |  |  |  |  | CN1CC(C(=O)Nc2ccc(-n3cc4cc(F)cc(C(N)=O)c4n3)cc2)C1 | 720 nM | 2600 nM
20 nM |  |  |  |  | CNCc1ccc(-n2nc3c(C(N)=O)cccc3c2Cl)cc1 | 5900 nM | 11000 nM
180 nM |  |  |  |  | CNCc1ccc(-n2cc3c(Cl)ccc(C(N)=O)c3n2)cc1 | 5200 nM | 4300 nM
540 nM |  |  |  |  | CNCc1ccc(-n2cc3c(O)ccc(C(N)=O)c3n2)cc1 | > 20000 nM | > 20000 nM
4 nM |  |  |  |  | CNCc1ccc(-n2cc3cccc(C(N)=O)c3n2)cc1F | 200 nM | 3800 nM
5 nM |  |  |  |  | CNCc1ccc(-n2cc3cc(Cl)cc(C(N)=O)c3n2)cc1 | 260 nM | 1000 nM
12 nM |  |  |  |  | CNCc1ccc(-n2cc3cccc(C(N)=O)c3n2)cc1O | 3400 nM | > 10000 nM
30 nM | 47% | 23 mL/min/kg |  |  | CN1CCC[C@@H](C(=O)Nc2ccc(-n3cc4cccc(C(N)=O)c4n3)cc2)C1 | 820 nM | 4300 nM
25 nM |  |  |  |  | CN1CCCC(C(=O)N(C)Cc2ccc(-n3cc4cccc(C(N)=O)c4n3)cc2)C1 (stereo not drawn) | 8600 nM | > 20000 nM
6 nM |  |  |  |  | CN1CC(C(=O)Nc2ccc(-n3cc4cc(F)cc(C(N)=O)c4n3)cc2F)C1 | 480 nM | 1600 nM
20 nM |  | 42 mL/min/kg |  |  | CN1CCC[C@H](C(=O)Nc2ccc(-n3cc4cccc(C(N)=O)c4n3)cc2)C1 | 1300 nM | 6000 nM
15 nM |  |  |  |  | CN(C)CC(=O)Nc1ccc(-n2cc3cccc(C(N)=O)c3n2)cc1 | 1500 nM | 5000 nM
2 nM |  |  |  |  | CNCc1ccc(-n2cc3cc(F)cc(C(N)=O)c3n2)cc1F | 26 nM | 1500 nM
5 nM |  |  |  |  | CNCc1ccc(-n2cc3cccc(C(N)=O)c3n2)cc1 | 500 nM | 5600 nM
10 nM |  | 13 mL/min/kg | 1% and 3% | 1 µL/min/mg | NC(=O)c1cccc2cn(-c3ccc(NC(=O)C4CNC4)cc3)nc12 | 920 nM | > 20000 nM
> 1000 nM |  |  |  |  | CNCc1ccc(-n2cc3c(OC)ccc(C(N)=O)c3n2)cc1 | 3400 nM | 5500 nM

SMILES | IC50 [2] | bioavailability [4] | clearance [5] | F (Rattus norvegicus) | microsomal CLint [6] | IC50 (HeLa [1]) | CC50 (HeLa [3])
NC(=O)c1cc(F)cc2cn(-c3ccc(NC(=O)C4CNC4)c(F)c3)nc12 | 4 nM |  |  |  |  | 42 nM | 650 nM
NC(=O)c1cccc2cn(-c3ccc(C(=O)NCCN4CCCC4)cc3)nc12 | 20 nM |  |  |  |  | 3300 nM | 8000 nM
NC(=O)c1cccc2cn(-c3ccc(NC(=O)CN4CCCCC4)cc3)nc12 | 20 nM |  |  |  |  | 1400 nM | 3000 nM
NC(=O)c1cccc2cn(-c3ccc(NC(=O)CN4CCOCC4)cc3)nc12 | 30 nM |  |  |  |  | 5000 nM | > 6000 nM
CN1CCCC(C(=O)NCc2ccc(-n3cc4cccc(C(N)=O)c4n3)cc2)C1 (stereo not drawn) | 22 nM |  |  |  |  | 2300 nM | 9400 nM
CN(Cc1ccc(-n2cc3cccc(C(N)=O)c3n2)cc1)C(=O)C1CNC1 | 18 nM |  |  |  |  | > 20000 nM | 20000 nM
CN1CCC(C(=O)Nc2ccc(-n3cc4cccc(C(N)=O)c4n3)cc2)CC1 | 10 nM |  |  |  |  | 3600 nM | 8400 nM
CN1CCC[C@@H](C(=O)Nc2ccc(-n3cc4cc(F)cc(C(N)=O)c4n3)cc2F)C1 | 12 nM |  |  |  |  | 440 nM | 1800 nM
NC(=O)c1cccc2cn(-c3ccc(C(=O)NCCN4CCCCC4)cc3)nc12 | 38 nM |  |  |  |  | 3000 nM | 6400 nM
NC(=O)c1cccc2cn(-c3ccc(C(=O)NCc4ccncc4)cc3)nc12 | 10 nM |  |  |  |  | 3900 nM | 8700 nM
NC(=O)c1cccc2cn(-c3ccc(C(=O)Nc4ccncc4)cc3)nc12 | 30 nM |  |  |  |  | 7300 nM | > 50000 nM
NC(=O)c1cccc2cn(-c3ccc(C(=O)N4CCCNCC4)cc3)nc12 | 22 nM |  |  |  |  | > 10000 nM | > 20000 nM
NC(=O)c1cccc2cn(-c3cccc(C(=O)N4CCCNCC4)c3)nc12 | 40 nM |  |  |  |  | > 20000 nM | > 20000 nM
CN1CCC[C@H]1C(=O)Nc1ccc(-n2cc3cccc(C(N)=O)c3n2)cc1 | 17 nM |  |  |  |  | 1200 nM | 5000 nM
NC(=O)c1cccc2cn(-c3ccc(NC(=O)CN4CCCC4)cc3)nc12 | 10 nM |  |  |  |  | 930 nM | 2800 nM
CNCc1ccc(-n2cc3cc(F)cc(C(N)=O)c3n2)cc1 | 1.4 nM |  |  |  |  | 94 nM | 1800 nM
CN1CCCCC1C(=O)Nc1ccc(-n2cc3cccc(C(N)=O)c3n2)cc1 (racemic) | 46 nM |  |  |  |  | 2600 nM | 6700 nM
